According to patent US10570179B2, “Substituted urea depsipeptide analogs as activators of the CLPP endopeptidase” (priority 2016, dated 2020):
≈ marks a conversion by molar mass, not a printed value. Numbered stars: 1 amine (or outer) side, 2 acyl side, 3 side chain; on linkers, the order of the positions; unused ones are H or OH. Bridge positions count the residues as written; N and C are the ends. Square brackets hold non-standard residues; d marks the D form. Peptide text beside a SMILES is read from it. * marks the point of attachment. Phe(3-Me) = Cc1cccc(C[C@H](N)C(=O)O)c1; NH(4-Cl-2-F-phenyl) = Fc1cc(Cl)ccc1N*; Pro(4R-Me) = C[C@H]1CN[C@H](C(=O)O)C1; Hyp = O=C(O)[C@@H]1C[C@@H](O)CN1; aThr = C[C@H](O)[C@H](N)C(=O)O; NH(2-F-phenyl) = Fc1ccccc1N*; Pip = O=C(O)[C@@H]1CCCCN1; X7 = Clc1ccc(N*)c(Cl)c1; CO = O=C([*:1])[*:2]

Key:
[1] = system: S. aureus ΔClpP; assay: Minimal inhibitory concentration, microbroth dilution; assay type: cell-based, Staphylococcus aureus; conditions: MIC; ClpP inactivated
Procedure: (§1) Minimal inhibitory concentrations (“MICs”) were determined using the microbroth dilution method according to Clinical Laboratory Standards Institute (CLSI; National, C.F. C. L. S., Methods for Dilution Antimicrobial Susceptibility Tests for Bacteria Grow aerobically-Seventh Edition: Approved Standard M7-A7, CLSI, Wayne, Pa., USA, 2008) and were read by visual inspection. Two fold serial dilutions of test compound in 100 μL of the appropriate broth media were first prepared in 96-well round bottom microtiter plates (Nalgene Nunc International, Rochester, N.Y., USA). An equivalent volume (100 μL) of bacterial broth inocula containing approximately 10^5 bacterial cfu/mL was added to each well to give final concentrations of test compound starting at 200 μM. The plates were then incubated aerobically at 37° C. All strains were incubated overnight. After incubations, in all cases the MIC was recorded as the lowest concentration of drug that prevented bacterial growth. The bacterial strains for which MIC was determined as described in Table 4.

[2] = system: E. faecails; assay: as above; assay type: cell-based; conditions: Enterococcus faecalis; MIC; read-out: Minimal Inhibitory Concentrations (μM) E. faecails
Procedure: as §1

[3] = system: MRSA NRS70; assay: as above; assay type: cell-based; conditions: Staphylococcus aureus; MIC; read-out: Minimal Inhibitory Concentrations (μM) MRSA NRS70
Procedure: as §1

[4] = system: S. aureus ATCC 29213; assay: as above; assay type: cell-based; conditions: Staphylococcus aureus, ATCC29213; MIC; read-out: Minimal Inhibitory Concentrations (μM) S. aureus ATCC 29213
Procedure: as §1

[5] = system: S. aureus USA 300; assay: as above; assay type: cell-based; conditions: Staphylococcus aureus, USA300; MIC; read-out: Minimal Inhibitory Concentrations (μM) S. aureus USA 300
Procedure: as §1

[6] = target: T1, S. aureus ClpP (Sa-ClpP) (Staphylococcus aureus, UniProt Q2G036); assay: Casein-BODIPY digestion assay (ClpP activation); assay type: biochemical
T1 construct: made in house; host or cells: E. coli BL21 (DE3)
T1 sequence (Q2G036 whole entry): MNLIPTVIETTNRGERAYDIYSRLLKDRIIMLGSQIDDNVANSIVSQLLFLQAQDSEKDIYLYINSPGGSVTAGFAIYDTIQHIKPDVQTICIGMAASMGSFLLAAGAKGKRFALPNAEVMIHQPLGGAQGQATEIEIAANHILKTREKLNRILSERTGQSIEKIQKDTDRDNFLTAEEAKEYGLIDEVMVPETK
Procedure: The compounds were assayed in a casein digestion assay in order to determine their effect on ClpP activation. Briefly, the assay was carried out using S. aureus ClpP (“Sa-ClpP”) overexpressed in E. coli BL21 (DE3) and purified in a two-step process. Purity of the protein was assessed through SDS PAGE analysis. EC50 evaluations were conducted in triplicate in a 20 μl assay format using a method adapted from Maurizi et al. (Methods Enzymol. (1994) 244:314-331). Each well contained 10 μM saClpP, 25 μg/ml BODIPY FL casein (Invitrogen Corporation, San Diego, Calif.), and test compound in concentrations ranging between 0-1000 μM in assay buffer (50 mM Tris pH 8, 200 mM KCl, and 1 mM TCEP). The reaction took place at 37° C. Fluorescence (excitation 485 nm; emission 528 nm) was measured in five minute intervals over a 45 min period using a BioTek HT fluorescence microplate reader (BioTek Instruments, Inc., Winooski, Vt.). Velocity of each reaction was calculated and data was fit to a dose response curve using GraphPad Prism® software (GraphPad Software, Inc., La Jolla, Calif.). EC50 is the effective concentration of compound which causes 50% activation of S. aureus ClpP in the foregoing BODIPY FL casein assay.
Alternatively, the assay was carried out using EnzCheck Protease Assay (Molecular Probes, Catalog # E6638). The assay was performed in black 384 well, flat bottom, low volume plates (Greiner Bio-One, Monroe, N.C., catalog #784076). 10 μL of Tris.HCl buffer, pH 8.0 with 0.01% Triton X-100 was pipetted into each well using a Well-Mate (Thermo Scientific, Waltham, Mass.). 0.4 μL test compounds or controls (2% DMSO v/v) were added to each well using a Biomek FX liquid handling robot (Beckman Coulter, Indianapolis, Ind.). After addition of test compounds and controls, 10 μL of master mix containing 2 μM Sa-ClpP and 2 μM substrate (Bodipy-FL labeled casein) in Tris.HCl buffer, pH 8.0 with 0.01% (v/v) Triton X-100, was pipetted into each well. All assays were performed in triplicate, under linear velocity conditions. Increase in fluorescent signal following activation of Sa-ClpP by test compounds and controls was measured over time period of 30 mins using filters with excitation at 485±15 nm and emission at 520±25 nm on a PHERAstar FS Multilabel reader (BMG, Cary, N.C.). Instrument gains and enzyme linear velocity conditions were determined and validated using ADEP4, a known Sa-ClpP activator. Data analysis was done by measuring rate of casein degradation over time (slopes). Computed degradation rates (slopes) were normalized to positive (ADEP4) or negative (DMSO) controls. Using nonlinear regression curve fitting EC50 values and % activation were determined using the equation “log [agonist] vs. Response-variable slope (four parameters)-symmetrical” in the program Prism 6 (GraphPad Software, La Jolla, Calif. USA, www.graphpad.com).

Row | SMILES | Minimal Inhibitory Concentrations (μM) S. aureus ΔClpP [1] [µM] | MIC [2] [µM] | MIC [3] [µM] | MIC [4] [µM] | MIC [5] [µM] | EC50 [6] [nM]
1 | Cc1cccc(C[C@H](NC(=O)Nc2ccc(Cl)cc2F)C(=O)N[C@@H]2C(=O)N3C[C@H](O)C[C@H]3C(=O)N3CCCC[C@H]3C(=O)N[C@@H](C)C(=O)N3CCC[C@H]3C(=O)O[C@H]2C)c1 [Compound 50, (S)-2-(3-(4-CHLORO-2-FLUOROPHENYL)UREIDO)-N-((6S,8AS,14AS,16R,20S,21S,23AS)-16-HYDROXY-6,21-DIMETHYL-5,8,14,19,23-PENTAOXOOCTADECAHYDRO-1H,5H,14H,19H-PYRIDO[2,1-I]DIPYRROLO[2,1-C:2′,1′-L][1]OXA[4,7,10,13]TETRAAZACYCLOHEXADECIN-20-YL)-3-(M-TOLYL)PROPANAMIDE] ({NH(4-Cl-2-F-phenyl)-CO}-[Phe(3-Me)][aThr][Hyp][Pip]AP; ester 2-C) | >20 | 2.5 (≈ 2.07 µg/mL) | 0.313 (≈ 0.259 µg/mL) | 0.625 (≈ 0.516 µg/mL) | 1.25 (≈ 1.03 µg/mL) | 
2 | Cc1cccc(C[C@H](NC(=O)Nc2ccc(Cl)cc2F)C(=O)N[C@H]2COC(=O)[C@@H]3CCCN3C(=O)[C@H](C)NC(=O)[C@@H]3CCCCN3C(=O)[C@@H]3C[C@@H](O)CN3C2=O)c1 [Compound 48, (S)-2-(3-(4-CHLORO-2-FLUOROPHENYL)UREIDO)-N-((6S,8AS,14AS,16R,20S,23AS)-16-HYDROXY-6-METHYL-5,8,14,19,23-PENTAOXOOCTADECAHYDRO-1H,5H,14H,19H-PYRIDO[2,1-I]DIPYRROLO[2,1-C:2′,1′-L][1]OXA[4,7,10,13]TETRAAZACYCLOHEXADECIN-20-YL)-3-(M-TOLYL)PROPANAMIDE] |  | 2.5 (≈ 2.03 µg/mL) | 1.25 (≈ 1.02 µg/mL) | 1.25 (≈ 1.02 µg/mL) | 1.25 (≈ 1.02 µg/mL) | 
3 | Cc1cccc(C[C@H](NC(=O)Nc2ccc(Cl)cc2Cl)C(=O)N[C@@H]2C(=O)N3C[C@H](O)C[C@H]3C(=O)N3CCCC[C@H]3C(=O)N[C@@H](C)C(=O)N3C[C@H](C)C[C@H]3C(=O)O[C@H]2C)c1 [Compound 78, (S)-2-(3-(2,4-DICHLOROPHENYL)UREIDO)-N-((2R,6S,8AS,14AS,16R,20S,21S,23AS)-16-HYDROXY-2,6,21-TRIMETHYL-5,8,14,19,23-PENTAOXOOCTADECAHYDRO-1H,5H,14H,19H-PYRIDO[2,1-I]DIPYRROLO[2,1-C:2′,1′-L][1]OXA[4,7,10,13]TETRAAZACYCLOHEXADECIN-20-YL)-3-(M-TOLYL)PROPANAMIDE] ({X7-CO}-[Phe(3-Me)][aThr][Hyp][Pip]A[Pro(4R-Me)]; ester 2-C) |  |  |  |  |  | 330 ± 100
4 | Cc1cccc(C[C@H](NC(=O)Nc2ccccc2F)C(=O)N[C@@H]2C(=O)N3C[C@H](O)C[C@H]3C(=O)N3CCCC[C@H]3C(=O)N[C@@H](C)C(=O)N3C[C@H](C)C[C@H]3C(=O)O[C@H]2C)c1 [Compound 80, (S)-2-(3-(2-FLUOROPHENYL)UREIDO)-N-((2R,6S,8AS,14AS,16R,20S,21S,23AS)-16-HYDROXY-2,6,21-TRIMETHYL-5,8,14,19,23-PENTAOXOOCTADECAHYDRO-1H,5H,14H,19H-PYRIDO[2,1-I]DIPYRROLO[2,1-C:2′,1′-L][1]OXA[4,7,10,13]TETRAAZACYCLOHEXADECIN-20-YL)-3-(M-TOLYL)PROPANAMIDE] ({NH(2-F-phenyl)-CO}-[Phe(3-Me)][aThr][Hyp][Pip]A[Pro(4R-Me)]; ester 2-C) |  |  |  |  |  | 590 ± 400
